Assay results as given in ChEMBL document CHEMBL1255411, “Tat pathway-mediated translocation of the sec pathway substrate protein MexA, an inner membrane component of the MexAB-OprM xenobiotic extrusion pump in Pseudomonas aeruginosa” (2010).
Values after ≈ are worked out from the molar mass of the structure shown.

How the values were obtained:
Format in all cases: functional
Pseudomonas aeruginosa [1] = assay: Antibacterial activity against mexA deficient Pseudomonas aeruginosa TNP070
Pseudomonas aeruginosa [2] = assay: Antibacterial activity against Pseudomonas aeruginosa PAO4290 harboring leu-10 argF10 aph-9004 FP(-)
Pseudomonas aeruginosa [3] = assay: Antibacterial activity against mexA deficient Pseudomonas aeruginosa TNP070 transformant harboring pMEXA1 carrying wild type mexA gene
Pseudomonas aeruginosa [4] = assay: Antibacterial activity against mexA deficient Pseudomonas aeruginosa TNP070 transformant harboring pPlcMexA carrying chimeric mexA gene with plcH signal sequence
Pseudomonas aeruginosa [5] = assay: Antibacterial activity against tatC deficient Pseudomonas aeruginosa TNP080
Pseudomonas aeruginosa [6] = assay: Antibacterial activity against tatC deficient Pseudomonas aeruginosa TNP080 transformant harboring pMEXA1 carrying wild type mexA gene
Pseudomonas aeruginosa [7] = assay: Antibacterial activity against tatC deficient Pseudomonas aeruginosa TNP080 transformant harboring pPlcMexA carrying chimeric mexA gene with plcH signal sequence
Pseudomonas aeruginosa [8] = assay: Antibacterial activity against tatC deficient Pseudomonas aeruginosa TNP080 transformant harboring pTatPlcMexA carrying entire tatC gene and the chimeric mexA gene

Row | Structure (SMILES) | MIC (Pseudomonas aeruginosa [1]) [µg/mL] | MIC (Pseudomonas aeruginosa [2]) [µg/mL] | MIC (Pseudomonas aeruginosa [3]) [µg/mL] | MIC (Pseudomonas aeruginosa [4]) [µg/mL] | MIC (Pseudomonas aeruginosa [5]) [µg/mL] | MIC (Pseudomonas aeruginosa [6]) [µg/mL] | MIC (Pseudomonas aeruginosa [7]) [µg/mL] | MIC (Pseudomonas aeruginosa [8]) [µg/mL]
1 | C[C@H]1[C@H](NC(=O)/C(=N\OC(C)(C)C(=O)O)c2csc(N)n2)C(=O)N1S(=O)(=O)O [AZTREONAM] | 0.25 (≈ 0.574 µM) | 4 (≈ 9.19 µM) | 2 (≈ 4.59 µM) | 2 (≈ 4.59 µM) | 0.13 (≈ 0.299 µM) | 2 (≈ 4.59 µM) | 0.25 (≈ 0.574 µM) | 2 (≈ 4.59 µM)
2 | O=C(N[C@H](CO)[C@H](O)c1ccc([N+](=O)[O-])cc1)C(Cl)Cl [CHLORAMPHENICOL] | 8 (≈ 24.8 µM) | 64 (≈ 198 µM) | 32 (≈ 99 µM) | 32 (≈ 99 µM) | 4 (≈ 12.4 µM) | 32 (≈ 99 µM) | 4 (≈ 12.4 µM) | 32 (≈ 99 µM)
